Here are results for 1 compound from US20260365684A1, “PHYTOSPHINGOSINE-3,4-CYCLICPHOSPHATE COMPOUND AND PHARMACEUTICAL COMPOSITION COMPRISING THE SAME” (AXCESO BIOPHARMA CO., LTD., priority 2022, published 2026).

Each structure is given as a SMILES string.

In test [1] the test system is mouse organs. Briefly: In vivo permeability of mouse organs after CLP (Evans blue dye). The note with it: treated at 6 and 16 hours after CLP, EBD i.v. at 18 hours; FIG. 11C. The protocol: Permeability was measured by an in vitro method using cell culture and in vivo method using Evans blue dye. To increase permeability, LPS was used in the in vitro method and CLP treatment was used in the in vivo method.
To measure permeability by an in vivo method, the compound of formula (1a-1) was treated at 6 and 16 hours after CLP treatment in the same manner as in Experimental Example 7 above, and 200 μl of a 0.5% Evans blue dye (EBD) solution was administered intravenously at 18 hours, circulated for 1 hour, and organs were harvested to visually confirm the presence of dye. The organs were then homogenized in a homogenizer to extract the dye at 55 °C for 48 hours, and permeability was determined by measuring absorbance at 620 nm.

Test [2] deals with lungs of mice. Nature of the test: Acute respiratory distress syndrome induced by CLP: lung histology, lung injury score, wet-to-dry weight ratio. In kind it is in vivo, mouse. The note with it: treated at 6 and 16 hours after CLP, lungs harvested at 18 hours. The protocol:
CLP induces pulmonary edema due to increased inflammation and disruption of the vascular barrier, resulting in acute respiratory distress syndrome (ARDS). To determine the effect on ARDS, the compound of formula (1a-1) was treated at 6 and 16 hours after CLP treatment in the same manner as in Experimental Example 7 above, the lungs of mice were harvested at 18 hours for histological analysis, and the wet-to-dry weight ratio of the lungs was obtained. For comparison, mice without CLP treatment served as a control group.
For histologic analysis, the harvested lungs were fixed in 10% paraformaldehyde, infiltrated with paraffin, sectioned into 5 μm-thick tissues, and then de-paraffinized with xylene. Sectioned tissues were mounted on slides, stained with H&E, and observed under an optical microscope. In addition, the lung tissue damage was evaluated by histological score to obtain the lung injury score (LIS) for each group.
To calculate the wet-to-dry weight ratio, lung organs were harvested 18 hours after CLP treatment, and the wet weight was measured immediately after harvesting, and the dry weight was measured after drying in an oven at 60 °C for 48 hours to calculate the wet-to-dry weight ratio. The wet-to-dry weight ratio is used as an indicator of organ edema formation.

For the compound `CCCCCCCCCCCCCC[C@H]1OP(=O)(O)O[C@H]1[C@@H](N)CO.Cl` [formula (1a-1), (4S,5R)-4-((S)-1-amino-2-hydroxyethyl)-2-hydroxy-5-tetradecyl-1,3,2-dioxaphosphoran-2-oxide hydrochloride], in test [1], the “amount of Evans blue dye (EBD) in each organ” value is “returns to normal”. In addition, the “lung tissue damage (histology, H&E)” value in test [2] (FIG. 9A) is “the lung tissue is almost restored to normal”. In addition, in test [2] (FIG. 9B), the “lung injury score (LIS)” value is “almost restores the lung injury score to normal”. Moreover, in test [2] (FIG. 9C), the “wet-to-dry weight ratio of the lung” value is “restores the wet-to-dry weight ratio of the lung to normal”.
